Measurements taken from US7842488B2, “Polynucleotides encoding a human 3-phosphoinositide- dependent protein kinase” (Medical Research Council, priority 1997, dated 2010).

Assays:
PDK1 [1] = assay: PDK1 assay: activation of GST-PKBα by purified PDK1 with phospholipid vesicles; format: biochemical, rabbit; details: lipid 10 μM in vesicles of 100 μM PtdCho, 100 μM PtdSer, 30 min at 30° C.
Description: Assay of PDK1. The assay was carried out in two stages; in the first, GST-PKBα was incubated with PDK1 in the presence of MgATP and phospholipid vesicles to permit activation of GST-PKBα.
After 10 min at 30° C., the reactions were terminated by spotting the reaction mixture on to p81 phosphocellulose paper. The papers were washed in phosphoric acid and analysed as described previously. […] The basal GST-PKBα activity is the activity measured in the absence of PDK1.

GST-DSTPK61 = biological target: T1, GST-DSTPK61 (Drosophila melanogaster, UniProt Q9W0V1); assay: GST-DSTPK61 assay: activation and phosphorylation of GST-PKBα; format: biochemical; details: lipid 10 μM in PtdCho/PtdSer vesicles
T1 construct: residues 1-752 of DSTPK61 in E. coli as fusion proteins; made in house; host or cells: E. coli (pGEX-3X)
T1 sequence (Q9W0V1 85-836 Q200H/Q201E/Q317A/G443R): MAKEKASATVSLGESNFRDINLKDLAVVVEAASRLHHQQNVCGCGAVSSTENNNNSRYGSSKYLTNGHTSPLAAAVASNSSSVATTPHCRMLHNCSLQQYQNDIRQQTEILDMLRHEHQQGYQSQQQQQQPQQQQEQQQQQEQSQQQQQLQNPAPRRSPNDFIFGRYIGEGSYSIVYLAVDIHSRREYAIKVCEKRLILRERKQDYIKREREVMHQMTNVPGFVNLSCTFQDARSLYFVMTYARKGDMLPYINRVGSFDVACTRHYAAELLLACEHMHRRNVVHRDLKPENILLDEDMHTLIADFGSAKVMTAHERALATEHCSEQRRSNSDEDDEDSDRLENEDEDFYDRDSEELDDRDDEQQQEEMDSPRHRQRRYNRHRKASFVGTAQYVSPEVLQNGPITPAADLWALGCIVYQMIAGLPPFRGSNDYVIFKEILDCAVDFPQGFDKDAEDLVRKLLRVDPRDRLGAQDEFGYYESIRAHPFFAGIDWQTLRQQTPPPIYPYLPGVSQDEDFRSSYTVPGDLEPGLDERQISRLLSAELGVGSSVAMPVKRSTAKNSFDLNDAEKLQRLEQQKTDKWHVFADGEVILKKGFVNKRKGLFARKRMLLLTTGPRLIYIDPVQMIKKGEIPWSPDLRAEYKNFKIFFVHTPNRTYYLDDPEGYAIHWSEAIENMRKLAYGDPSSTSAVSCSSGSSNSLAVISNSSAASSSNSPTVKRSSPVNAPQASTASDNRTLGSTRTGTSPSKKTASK
Description: (§1) FIG. 12. […] In panels A and C, the assays were terminated by making the incubations 1% (by vol) in TRITON X-100™ (see Ref 21), and the increase in specific activity of GST-PKBα was determined. In panels B and D, the reactions were terminated by making the solutions 1% in SDS, the samples were subjected to SDS/polyacrylamide gel electrophoresis, and the phosphorylation was assessed by autoradiography of the Coomassie blue-stained band corresponding to GST-PKBα.
(§2) One unit of PDK1 activity was defined as that amount required to increase the basal activity of GST-PKBα by 1 unit of activity in one min.

PDK1 [2] = assay: Phosphorylation of GST-PKBα by PDK1 with [γ32P]ATP; format: biochemical, rabbit; details: lipid 10 μM in PtdCho/PtdSer vesicles
Description: Solutions were stored at 4° C. at concentrations 10-fold higher than those required in the assay and used within 2-4 days.
Phosphorylation of GST-PKB ? by PDK1. The incubations were identical to the Stage 1 described above except that [γ^32P] ATP (200-400 cpm/pmol) was used instead of unlabelled ATP. The reactions were terminated by making the solution 1% (by mass) in SDS. […] The Coomassie blue-staining bands corresponding to GST-PKBα were excised and the ^32P-radioactivity associated with each band was quantified.

GST-PDK1 = biological target: T2, GST-PDK1 (Homo sapiens, UniProt O15530); assay: GST-PDK1 assay: activation and phosphorylation of GST-PKBα; format: biochemical; details: lipid 10 μM in PtdCho/PtdSer vesicles
T2 construct: Residues 52-556 of PDK1 were expressed in human embryonic kidney 293 cells; made in house; host or cells: human embryonic kidney 293 cells (pEBG2T)
T2 sequence (O15530 52-556): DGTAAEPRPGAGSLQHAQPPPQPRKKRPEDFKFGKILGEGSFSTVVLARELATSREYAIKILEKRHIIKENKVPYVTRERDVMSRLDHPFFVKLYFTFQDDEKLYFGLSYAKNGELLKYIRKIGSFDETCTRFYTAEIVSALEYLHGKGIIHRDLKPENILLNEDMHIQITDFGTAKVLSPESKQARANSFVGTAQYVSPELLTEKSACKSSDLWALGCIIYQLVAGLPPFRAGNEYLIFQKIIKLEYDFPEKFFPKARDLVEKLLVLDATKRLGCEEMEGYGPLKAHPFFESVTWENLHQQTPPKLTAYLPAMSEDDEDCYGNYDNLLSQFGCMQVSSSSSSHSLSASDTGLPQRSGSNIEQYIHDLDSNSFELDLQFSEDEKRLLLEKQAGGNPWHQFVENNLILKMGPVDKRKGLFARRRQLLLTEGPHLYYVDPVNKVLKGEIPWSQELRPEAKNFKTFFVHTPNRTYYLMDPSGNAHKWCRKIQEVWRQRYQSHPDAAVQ
Description: as §1, §2

HA-PKBα [3] = assay: HA-PKBα activity in transfected 293 cells; format: cell-based, human
Description: FIG. 14. PKBα is activated by cotransfection with PDK1 in 293 cells. (A) 293 cells were transiently transfected with DNA constructs expressing either HA-PKBα or both HA-PKBα and Myc-PDK1. The cells were then stimulated for 10 min with or without 50 ng/ml IGF1, the HA-PKBα immunoprecipitated from the lysates and assayed. The results are expressed relative to the specific activity of wild type HA-PKBα in unstimulated 293 cells ([…]). No PKBα activity was detected in mock transfections in which the cells were transfected with PCMV5 vector alone (data not shown). (B) 6 μg of protein from each lysate was electrophoresed on a 10% SDS/polyacrylamide gel and immunoblotted using either a monoclonal HA-antibody to detect HA-PKBα or a monoclonal Myc-antibody to detect Myc-PDK1. The molecular mass markers are glycogen phosphorylase (97 kDa), bovine serum albumin (67 kDa) and ovalbumin (43 kDa).
Transfection of 293 cells with HA-tagged PBKα and Myc-PDK1. Human embryonic kidney 293 cells were cultured on 10 cm diameter dishes and transfected with 2 μg/ml pCMV5 DNA constructs encoding for HA-PKBα or HA-PKBα plus Myc-PDK1 [20]. After 24 h the cells were deprived of serum for a further 16 h and then stimulated for 10 min with either […] IGF1 or Buffer. The cells were lysed in 1.0 ml of ice-cold Buffer A, the lysate centrifuged at 4° C. for 10 min at 13,000×g and HA-PKBα immunoprecipitated from aliquots of the supernatant (10 μg protein) and assayed for PKBα with the peptide RPRAATF (SEQ ID NO: 9) as described previously.

HA-PKBα [4] = assay: 32P-labelling of transfected 293 cells: phosphorylation sites of HA-PKBα; format: cell-based, human; details: unstimulated 293 cells
Description: FIG. 15. Overexpression of PDK1 in cells induces phosphorylation of PKBα at Thr308. 293 cells transiently transfected with either wild type HA-PKBα (panels A and C) or HA-PKBα and Myc-PDK1 (panels B and D) were incubated with ^32P-orthophosphate, then treated for 10 min without (panels A and B) or with (panels C and D) 50 ng/ml IGF1. The ^32P-labelled HA-PKBα was immunoprecipitated from the lysates, treated with 4-vinylpyridine, and electrophoresed on 1 10% polyacrylamide gel. The HA-PKBα was excised from the gel, digested with trypsin and chromatographed on a C18 column (see legend to FIG. 13) to resolve the four major phosphopeptides which are phosphorylated at Ser-124, Ser473, Thr308 and Thr450 respectively. The identity of each phosphopeptide was established by phospho-amino acid analysis and solid phase sequencing. Similar results were obtained in two separate experiments for (panels A and C), and in three separate experiments (panels B and D).
^32P-labelling of 293 cells transfected with HA-PKBα or Myc-PDK1. This was carried out essentially as described previously. Briefly, 293 cells were transfected with HA-PKBα, or with HA-PKBα plus Myc-PDK1, washed with phosphate free DMEM, incubated for 4 h with [^32P]-orthophosphate (1 mCi/ml), then stimulated with IGF1 (50 ng/ml) for 5 min. The cells were lysed, and the HA-PKBα immunoprecipitated (using 10 μg of 12CAS antibody per 10 cm dish of cells) or the Myc-PDK1 immunoprecipitated (using 10 μg of 9E10 antibody per 10 cm dish of cells). The immunoprecipitated protein was alkylated with 4-vinylpyridine, subjected to SDS/polyacrylamide gel electrophoresis, digested with trypsin and analysed by chromatography on a C18 column (Alessi et al (1996) EMBO J. 15, 6541-6551).

In the case of `CCCCCCCCCCCCCCCC(=O)OC[C@H](COP(=O)(O)OC1C(O)C(O)C(O)C(OP(=O)(O)O)C1O)OC(=O)CCCCCCCCCCCCCCC` (some centres unmarked) [Lipid 11, sn-1,2 di-palmitoyl PtdIns-3P], the “activation of PDK1 (in words)” value (PDK1 [1]) is reported as “no significant activation”, the “activation of PDK1 (in words)” value (PDK1 [1]; listed as PtdIns(3)P) is reported as “did not activate PDK1 at all” and the “activation of PDK1 (in words)” value (PDK1 [1]; listed as lipid 11) is reported as “did not activate PDK1”. The “activation and phosphorylation of GST-PKBα by GST-DSTPK61 (in words)” value (GST-DSTPK61) was “no activation or phosphorylation”, the “phosphorylation of GST-PKBα by PDK1 (in words)” value (PDK1 [2]) was “did not activate PDK1 or induce the phosphorylation” and the “activation and phosphorylation of GST-PKBα by GST-PDK1 (in words)” value (GST-PDK1) was “no activation or phosphorylation”.

PtdIns 4P [Lipid 10] was tested, and the “activation of PDK1 (in words)” value (PDK1 [1]) was “no significant activation”, the “activation of PDK1 (in words)” value (PDK1 [1]; listed as PtdIns(4)P) was “did not activate PDK1 at all” and the “activation of PDK1 (in words)” value (PDK1 [1]; listed as lipid 10) was “did not activate PDK1”. For the same molecule, the “phosphorylation of GST-PKBα by PDK1 (in words)” value (PDK1 [2]) was “did not activate PDK1 or induce the phosphorylation”.

B1: Myc-D223A-PDK1: catalytically inactive mutant of PDK1, Myc-tagged (protein)
chain: MARTTSQLYDAVPIQSSVVLCSCPSPSMVRTQTESSTPPGIPGGSRQGPAMDGTAAEPRPGAGSLQHAQPPPQPRKKRPEDFKFGKILGEGSFSTVVLARELATSREYAIKILEKRHIIKENKVPYVTRERDVMSRLDHPFFVKLYFTFQDDEKLYFGLSYAKNGELLKYIRKIGSFDETCTRFYTAEIVSALEYLHGKGIIHRDLKPENILLNEDMHIQITAFGTAKVLSPESKQARANSFVGTAQYVSPELLTEKSACKSSDLWALGCIIYQLVAGLPPFRAGNEYLIFQKIIKLEYDFPEKFFPKARDLVEKLLVLDATKRLGCEEMEGYGPLKAHPFFESVTWENLHQQTPPKLTAYLPAMSEDDEDCYGNYDNLLSQFGCMQVSSSSSSHSLSASDTGLPQRSGSNIEQYIHDLDSNSFELDLQFSEDEKRLLLEKQAGGNPWHQFVENNLILKMGPVDKRKGLFARRRQLLLTEGPHLYYVDPVNKVLKGEIPWSQELRPEAKNFKTFFVHTPNRTYYLMDPSGNAHKWCRKIQEVWRQRYQSHPDAAVQ
modifications: left off: small tags and cut ends
For B1, the “activation of HA-PKBα on cotransfection (in words)” value (HA-PKBα [3]; 293 cells) was “not activated significantly”.

B2: Myc-PDK1: Myc-epitope tagged PDK1 transfected into 293 cells (protein)
chain: T2 sequence (O15530 52-556)
modifications: left off: small tags and cut ends
In the case of B2, the “phosphorylation of HA-PKBα at Thr308 relative to IGF1-stimulated cells transfected with HA-PKBα alone” value (HA-PKBα [4]; cotransfection) is reported as 70%, the “phosphorylation of HA-PKBα at Ser473 on cotransfection (in words)” value (HA-PKBα [4]) is reported as “did not induce phosphorylation of HA-PKBα at Ser473” and the “fold increase of HA-PKBα activity on cotransfection” value (HA-PKBα [3]; unstimulated 293 cells) is reported as 20 fold.
